Experimental data: patent US8623325B2, “Azide modified charge sensitive channel proteins” (priority 2008, dated 2014)

Target: T1, E. coli channel protein MscL Gly22Cys (Escherichia coli, UniProt P0A742, G22C)
T1 construct: made in house
Assay: Calcein release from liposomes containing MscL Gly22Cys (self-quenching fluorescent dye)
Type: biochemical
Description: MscL-MA was reconstituted into synthetic liposomes composed of azolectin by using a detergent mediated reconstitution method. The incorporation of channels protein in lipid vesicles is describe in detail in WO2005051902 This procedure was performed in the presence of calcein, a self-quenching fluorescent dye. At high local concentrations inside the liposomes, the fluorescence of calcein is low. Release of calcein from liposomes results in dilution of the dye and consequently in a large increase in fluorescence intensity. The labelling and reconstitution was validated by using unlabeled MscL instead of MscL-MA.
The activity of azide labeled Gly22Cys MscL in the liposome was verified with triphenylphosphine (Trisodium triphenylphosphine-3,3′,3″-trisulfonate) at pH 7.2-7.5 at 37° C.
A control experiment was performed using vesicles with unlabelled Gly22Cys MscL and the channel activator MTSET, which is a charged and cysteine-reactive molecule.
MscL-MA has a closed conformation. Calcein can not leave from a vesicle via this closed MscL-MA. To these vesicles MTSET was added. Unlabelled cysteine residues, if present, will react with MTSET and introduce a charge in the channel protein resulting in the opening of the channel and release of fluorescent label. Such residual activation was not observed, showing that a quantitative MA labelling of all cysteines in MscL was obtained (FIG. 7, bottom panel).
In the experimental setting calcein-filled vesicles with MscL-MA are treated with triphenylphosphine at […].
Control experiments are performed using the same calcein filled vesicles with MscL, which is not modified with MA and wherein these unmodified vesicles are treated with triphenylphosphine.

T1 sequence (P0A742 whole entry G22C): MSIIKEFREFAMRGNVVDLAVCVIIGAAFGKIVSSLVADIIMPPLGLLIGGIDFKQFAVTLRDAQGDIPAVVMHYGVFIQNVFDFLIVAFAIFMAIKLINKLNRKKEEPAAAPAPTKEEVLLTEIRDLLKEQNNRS

SMILES	calcein release after addition of MTSET (calcein-filled liposomes with unlabelled (unmodified) Gly22Cys MscL)	activation / calcein release after addition of MTSET (vesicles with azide-modified MscL (MscL-MA))	release from MscL upon contacting with phosphine (MscL modified with compound IX, calcein filled vesicles, pH 7.4)
C[N+](C)(C)CCSS(C)(=O)=O.[Br-] [MTSET]	resulted in calcein release	could not activate the modified MscL	–
CS(=O)(=O)SCCOC(=O)CNC(=O)OCc1ccc(N=[N+]=[N-])cc1 [compound IX]	–	–	significant increase in release
